Here are results for four compounds from US20200138804A1, “METHODS FOR TREATING CANCER” (X4 Pharmaceuticals, Inc., priority 2017, published 2020).

The subject of data set [1] is murine models of melanoma, renal cell carcinoma, and ovarian cancer. As to conditions: including decreased metastasis and increased overall survival; cited from earlier work.
For data set [2] the following is noted: subcutaneous injection; cited from earlier work.
For data set [3] the following is noted: Phase 1 and 2a trials, oral; cited from earlier work.
Data set [4] is described as follows: in vivo. How it is done: In certain embodiments, the dosage composition may be provided twice a day in divided dosage, approximately 12 hours apart. In other embodiments, the dosage composition may be provided once daily. […] Dosage for oral administration may be from about 100 mg to about 1200 mg once or twice per day.
Data set [5] is described as follows: Solubility of X4P-001 as a function of pH. Type of data set: physicochemical.
Data set [6] has as its system tumor infiltrating lymphocytes and MDSC in MC38 tumors. The data set can be described thus: Flow cytometry of Day 8 tumor samples, MC38 model (Groups 5-8). Type of data set: in vivo, mouse. An excerpt:
On Day 8, tumor samples from Groups 5-8 are obtained and divided into three parts. The first part is process to single cells by flow cytometry; second part is preserved by snap freeze; and the third part is preserved as formalin-fixed, paraffin-embedded (FFPE) blocks for IHC analysis of biomarkers.
Samples subjected to flow cytometry are sorted into the following cell types:

Data set [7] has as its system intra-tumoral CD8+ activated T-cells and FoxP3+ Tregs. The data set can be described thus: Immunohistochemical analysis of intra-tumor T-cell infiltrates in a melanoma patient before and after X4P-001. Type of data set: in vivo, human. How it is done: Intra-tumoral tissue samples were obtained from a patient with melanoma prior to treatment (Day 1), and after three (3) weeks of treatment with CXCR4 inhibitor […]-001 (200 mg BID, oral) (Week 4). Samples were stained for CD8+, indicative of activated T-cells, and FoxP3+, indicative of immunosuppressive regulator T-cells (Tregs). The tables below indicate the total counts and density per square millimeter (mm^2) of CD8+ activated T-cells and FoxP3+ Tregs, as well as the ratio of CD8+ activated T-cells:FoxP3+ Tregs per mm^2 at day 1 and after 3 weeks of treatment.

Data set [8] has as its system advanced clear-cell renal cell carcinoma. As to conditions: nivolumab 3 mg/kg IV every two weeks or everolimus 10 mg orally daily; P<0.001; cited from earlier work.

Entries after “also recorded” stand apart in the source; their conditions may differ. Read-outs that look alike come from different tables or passages of the source.

A word on the half-life: it is how long it takes for the measured level to halve. A word on the solubility: it is the dissolved amount per volume that the medium holds.

For the compound `c1cc(CN2CCCNCCNCCCNCC2)ccc1CN1CCCNCCNCCCNCC1` [Plerixafor, reference compound], the anti-tumor activity result in data set [1] is “significant anti-tumor activity”. Moreover, the half-life result in data set [2] was “very short half-life”.

For `NCCCCN(Cc1nc2ccccc2[nH]1)[C@H]1CCCc2cccnc21` [X4P-001], in data set [3], the “pharmacodynamic activity: changes in circulating white blood cells (WBCs)” value was “dose- and concentration-related changes in circulating white blood cells”; the “volume of distribution (VL)” value was “high volume of distribution”. In data set [4], the terminal half-life entry is “approximately 14.5 hrs”. Also, the half-life in data set [4] (terminal half-life) lay in the range of 12 to 24 h. The solubility in data set [5] (aqueous buffer, pH range 3.0 to 8.0 (freely soluble)) is above 100 mg/mL. For the same compound, the Solubility in water result in data set [5] (water) was “only slightly soluble”. The “Treg, Percent of CD45^+ Population (Mean ± SEM)” value in data set [6] (control 0.5 ± 0.08) is listed as 0.49 ± 0.14%. Moreover, the “CD4^+, Percent of CD45^+ Population (Mean ± SEM)” value in data set [6] (control 1.21 ± 0.29) is 1.3 ± 0.51%. In addition, the “CD8^+, Percent of CD45^+ Population (Mean ± SEM)” value in data set [6] (control 3.91 ± 0.69) was determined as 6.11 ± 0.66%. Besides, in data set [6] (control 7.82), the “CD8^+/Treg” value worked out at 12.47. The “MDSC, Percent of CD45^+ Population (Mean ± SEM)” value in data set [6] (control 28.97 ± 3.6) amounted to 16.2 ± 0.67%. Besides, in data set [6] (versus control), the “effect on CD8^+ T cells” value is reported as “increasing CD8^+ T cells” and the “effect on MDSCs” value was “significant effect on reducing MDSCs”. The “Total FoxP3+/mm^2” value in data set [7] (Week 4, after 3 weeks of 200 mg BID oral, Day 1 before treatment 24.5868158) is recorded as 25.2 /mm^2. Moreover, the “Total CD8+/mm^2” value in data set [7] (Week 4, after 3 weeks of 200 mg BID oral, Day 1 before treatment 56.87565442) is given as 121.4 /mm^2. Moreover, the “Total FoxP3+” value in data set [7] (Week 4, after 3 weeks of 200 mg BID oral, Day 1 before treatment 313) was 337. Further, the “Total CD8+” value in data set [7] (Week 4, after 3 weeks of 200 mg BID oral, Day 1 before treatment 720) was 1685. The “intra-tumoral CD8+ T-cell counts” value in data set [7] (Week 4 versus Day 1, 200 mg BID oral, FIG. 3) is reported as “marked increases in CD8+ T-cells; also recorded: marked increase”. For the same compound, the anti-tumor activity entry in data set [1] was “significant anti-tumor activity”.

For `CO[C@H]1C[C@@H]2CC[C@@H](C)[C@@](O)(O2)C(=O)C(=O)N2CCCC[C@H]2C(=O)O[C@H]([C@H](C)C[C@@H]2CC[C@@H](OCCO)[C@H](OC)C2)CC(=O)[C@H](C)/C=C(\C)[C@@H](O)[C@@H](OC)C(=O)[C@H](C)C[C@H](C)/C=C/C=C/C=C/1C` [everolimus], in data set [8], the objective response rate is 5%.

As to “nivolumab: fully human IgG4 monoclonal antibody binding the PD-1 receptor”, the objective response rate in data set [8] was 25%.
